Experimental data as given in ChEMBL document CHEMBL5727896, “Aryldiazepine derivatives as RSV inhibitors” (2020).

assay: n vitro cytoprotection assay: HEp-2 cells, (originally derived from tumors grown in irradiated-cortisonised weanling rats that had been injected with epidermoid carcinoma tissue from a person's larynx, but later found to be indistinguishable from HeLa cells by PCR DNA analysis), were used for the culturing of genotype A, “Long” strain RSV. Flasks were inoculated with RSV and viral stocks were collected once cytopathic effect (CPE) was greater than 90%. Viral stocks in 25% sucrose media were snap frozen using liquid nitrogen to increase viral stability. Viral stock titers were quantified by tissue culture infectious dose 50% (TCID50) using 8,000 cells per well and 3-fold viral dilutions across a 96-well plate, cultured for 4 days.Following extensive parameter testing, the final assay is run as follows: HEp-2 cells are seeded into the inner 60 wells of a 96-well plate at 8,000 cells per well in a volume of 50 using Growth Media (DMEM without phenol red, 1% L-Glut, 1% Penn/Strep, 1% nonessential amino acids, 10% FBS). 2-fold serial dilutions of control and test compounds are added to the wells in duplicate in a total volume of 25 μL. Viral stock is then added to the wells in a volume of 25 μL, bringing the total volume of each well to 100 μL. Each 96-well plate has a control column of 6 wells with cells and virus but no compound (negative control, max CPE), a column with cells but no compound or virus (positive control, minimum CPE), and a column with no cells or virus or compound (background plate/reagent control). The control wells with cells but no virus are given an additional 25 uL of growth media containing an equal quantity of sucrose as those wells receiving the viral stock in order to keep consistent in media and volume conditions. The outer wells of the plate are filled with 125 μL of growth media to act as a thermal and evaporative moat around the test wells. Following a 4-day incubation period, the plates are read using ATPlite (50 uL added per well), which quantifies the amount of ATP (a measure of cell health) present in each well. Assay plates are read using the Envision luminometer.

Row | Structure (SMILES) | EC50 [µM]
1 | NNC(=O)c1ncc(C(F)(F)F)cc1Cl | < 2
2 | O=C1Nc2ccccc2N(c2ccccc2)C[C@@H]1Nc1nnc(-c2ccccc2)o1 | > 5
3 | O=C(Nc1ccccc1)N[C@H]1CN(c2ccccc2)c2ccccc2NC1=O | > 5
4 | O=C1Nc2ccccc2N(c2cc(F)c(F)c(F)c2)C[C@@H]1Nc1nnc(-c2ncc(C(F)(F)F)cc2N2CCOCC2)o1 | > 5
5 | O=C1Nc2ccccc2N(c2ccccc2)C[C@@H]1Nc1nnc(-c2ccc(F)cc2)o1 | > 5
6 | O=C1Nc2ccccc2N(c2ccccc2)C[C@@H]1Nc1nnc(-c2cccnc2N2CCOCC2)o1 | 3.5
7 | O=C(NC1C(=O)Nc2ccccc2N(c2ccccc2)C1=O)c1ccccc1 (stereo not given) | > 5
8 | O=C(Nc1ccccc1)NC1C(=O)Nc2ccccc2N(c2ccccc2)C1=O (stereo not given) | > 5
9 | COCCNc1cc(C(F)(F)F)cnc1-c1nnc(N[C@H]2CN(c3ccccc3)c3ccccc3NC2=O)o1 | > 5
10 | O=C(NNC(=S)NC1C(=O)Nc2ccccc2N(c2ccccc2)C1=O)c1ccccc1 (stereo not given) | > 5
11 | Cc1ccc(C(=O)NN)o1 | > 5
12 | O=C1Nc2ccccc2N(c2ccccc2)C[C@@H]1Nc1nc2ccccc2o1 | > 5
13 | NNC(=O)c1cn(-c2ccccn2)nc1N1CCOCC1 | 3.5
14 | O=C1Nc2ccccc2N(c2ccccc2)C[C@@H]1Nc1nnc(-c2cn(C3CCCC3)nc2N2CCOCC2)o1 | < 2
15 | O=C1Nc2ccccc2N(c2ccccc2)C[C@@H]1Nc1nnc(-c2ncc(C3CC3)cc2N2CCOCC2)o1 | < 2
16 | O=C(N[C@H]1CN(c2ccccc2)c2ccccc2NC1=O)c1ccccc1 | > 5
17 | CCOC(=O)c1nc(C(F)(F)F)sc1N1CCOCC1 | < 2
18 | NNC(=O)c1nc(-c2cccnc2)sc1N1CCOCC1 | < 2
19 | O=C1Nc2ccccc2N(c2ccccc2)C[C@@H]1Nc1nnc(-c2ccc(N3CCOCC3)cc2F)o1 | > 5
20 | O=C1Nc2ccccc2N(c2ccccc2)C[C@@H]1Nc1nnc(-c2nc(C3CC3)sc2N2CCOCC2)o1 | < 2
